Patent EP4458358A1, “PYRIDAZINE COMPOUNDS FOR ANTIFIBROTIC THERAPY” (Tietze Chemical Consulting UG, priority 2023, dated 2024)

What was measured:
Format in all cases: cell-based
GM637 = test: ELISA of secreted pro-collagen I alpha 1 (Type I Collagen) from human dermal fibroblasts GM637
Procedure: (§1) Compounds reconstitution and stock solution: Prior to treatment, DMSO was diluted in PMS until 0,1% DMSO was made. Each compound was solved in 0,1% DMSO (3: 2,5 mg/mL, 1: 2.5 mg/mL, 10: 1 mg/mL, 5: 1mg/mL, 7: 0,6 mg/mL, 16: 1 mg/mL 17: 1 mg/mL, 44: 0,6 mg/mL, 36: 1mg/mL.
(§2) Next the different stock solution with 150 µg and 250 µg of each compound per 1 ml culture solution was made by adding the 0,1% DMSO compound solution in the right amount to culture solution (DMEM with 10% FCS and 1% penicillin-streptomycin).
(§3) Three different cell lines were used for the experiments. GM637 is an immortalized cell line originated from human skin fibroblasts, bought in 2001, UKE1 and […] are cell lines originated from human dermal fibroblasts (dog ear) nurtured from patients, between 60 and 80 years old being completely anonymized at the clinic for dermatology, Rostock.
(§4) The cells lines were thawed and were cultured in Dulbeco's modified Eagel's medium (DMEM, Gibcon, USA) supplemented with 10% fetal bovine serum (FBS, Gibco, Germany) and 1% penicillin-streptomycin (PS, Gibco, USA) at 37 °C in a humidified atmosphere with 5% CO2 until a sufficient number of cells were culture in T75 culture bottles. After reaching a confluence of 80% to 90%, the cells were separated using trypsin and counted. Next 100.000 cells were planted in each well of a 6 well plate in replicates, washed and the DMEM solution with 150 µg and 250 µg/ml substance/DMEM and DMEM with no substance as control was added.
(§5) After 48h and after 72h 100 µl supernatant of each well was taken, labelled and frozen at -20° degree Celsius. Prior to perform ELISA the medium was depending on the cell line diluted 1:50 or 1:100 with PBS, otherwise the concentration of collagen fibers was too high to be measured.
(§6) The media containing the secretion of the different human dermal fibroblasts GM637, UKE1, and HRO159N were collected after 48h and 72h treatment. Secretion of pro-collagen 1 was assessed with human pro-collagen I alpha 1 DuoSet ELISA (R&D systems, USA) To prepare the Elisa plate, Human pro-Collagen I a capture antibody was diluted in ELISA plate-coating buffer at 4µg/mL working concentration. 100 µl of diluted Capture antibody was added to 96-well microplates and incubated over night at room temperature. After three times washing with Wash Buffer, microplates were blocked by adding 300 µl of Reagent Diluent for 1 hour at room temperature. To proceed the ELISA Human pro-collagen I α1 Standards were diluted in Reagent Diluent (range between 31,3 pg/mL - 2000 pg/mL) and 100 µl of standards or conditioned mediums were added to designated wells. Microplates were incubated at room temperature for 2 hours. Human Pro-collagen I α1 Detection Antibody was prepared in Reagent Diluent at […] working concentration and 100 µl of diluted Detection Antibody was applied for 2 hours at room temperature after extensive washing. Then, working solution of Streptavidin-HRP with Reagent Diluent was prepared by diluting 1:40 and added into each well. After 20 minutes at room temperature incubation, microplates were washed and applied with 100 µl of Substrate Solution for 20 minutes followed by Stop Solution after washing. Finally, signals were measured at 450 nm absorbance by PHomo Microplate Reader (Autobio, China) The amount of pro-collagen 1 was quantified by extrapolating the signal into a linear range of a pro-collagen 1 standard curve. Screening compounds were typically tested at concentration of 150 and 250 µg/mL. The dose response data for each compound and the different cell lines were obtained by nonlinear regression analysis using Prism 9 software (GraphPad, La Jolla, USA).

UKE1 = test: ELISA of secreted pro-collagen I alpha 1 (Type I Collagen) from human dermal fibroblasts UKE1
Procedure: as §1, §2, §3, §4, §5, §6

HRO159N = test: ELISA of secreted pro-collagen I alpha 1 (Type I Collagen) from human dermal fibroblasts HRO159N; conditions: 250 µg
Procedure: as §1, §2, §3, §4, §5, §6

MRCVI = test: ELISA of secreted pro-collagen I alpha 1 (Type I Collagen) from human lung fibroblast MRCVI
Procedure: as §1, §2
As cell line MRCV1 was used, which is an immortalized cell line originated from human lung fibroblast, bought in 2001.
as §4, with “cell line was” for “cells lines were”, “and” for “and were”
as §5
The medium containing the secretion of the human lung fibroblast MRCVI was collected after 48h and 72h treatment. Secretion of pro-collagen 1 was assessed with human pro-collagen I alpha 1 DuoSet ELISA (R&D systems, USA) To prepare the Elisa plate, Human pro-Collagen I a capture antibody was diluted in ELISA plate-coating buffer at 4µg/mL working concentration. 100 µl of diluted Capture antibody was added to 96-well microplates and incubated over night at room temperature. After three times washing with Wash Buffer, microplates were blocked by adding 300 µl of Reagent Diluent for 1 hour at room temperature. To proceed the ELISA Human pro-collagen I α1 Standards were diluted in Reagent Diluent (range between 31,3 pg/mL - 2000 pg/mL) and 100 µl of standards or conditioned mediums were added to designated wells. Microplates were incubated at room temperature for 2 hours. Human Pro-collagen I α1 Detection Antibody was prepared in Reagent Diluent at […] working concentration and 100 µl of diluted Detection Antibody was applied for 2 hours at room temperature after extensive washing. Then, working solution of Streptavidin-HRP with Reagent Diluent was prepared by diluting 1:40 and added into each well. After 20 minutes at room temperature incubation, microplates were washed and applied with 100 µl of Substrate Solution for 20 minutes followed by Stop Solution after washing. Finally, signals were measured at 450 nm absorbance by PHomo Microplate Reader (Autobio, China) The amount of pro-collagen 1 was quantified by extrapolating the signal into a linear range of a pro-collagen 1 standard curve. Screening compounds were typically tested at concentration of 150 and 250 µg/mL. The dose response data for each compound and the different cell lines were obtained by nonlinear regression analysis using Prism 9 software (GraphPad, La Jolla, USA).

| SMILES | collagen reduction percentage in comparison to the standard (100 %) (GM637; 48h, 150 µg) | collagen reduction percentage in comparison to the standard (100 %) (GM637; 48h, 250 µg) | collagen reduction percentage in comparison to the standard (100 %) (GM637; 72 h, 150 µg) | collagen reduction percentage in comparison to the standard (100 %) (GM637; 72 h, 250 µg) | collagen reduction percentage in comparison to the standard (100 %) (UKE1; 48h, 150 µg) | collagen reduction percentage in comparison to the standard (100 %) (UKE1; 48h, 250 µg) | collagen reduction percentage in comparison to the standard (100 %) (UKE1; 72 h, 150 µg) | collagen reduction percentage in comparison to the standard (100 %) (UKE1; 72 h, 250 µg) | collagen reduction percentage in comparison to the standard (100 %) (HRO159N; 48h) | collagen reduction percentage in comparison to the standard (100 %) (HRO159N; 72 h) | collagen reduction percentage in comparison to the standard (100 %) (MRCVI; 48h, 150 µg) | collagen reduction percentage in comparison to the standard (100 %) (MRCVI; 48h, 250 µg) | collagen reduction percentage in comparison to the standard (100 %) (MRCVI; 72 h, 150 µg) | collagen reduction percentage in comparison to the standard (100 %) (MRCVI; 72 h, 250 µg) |
| --- | --- | --- | --- | --- | --- | --- | --- | --- | --- | --- | --- | --- | --- | --- |
| c1ccc2c(c1)cnn1nnnc21 [Compound 1, Tetrazolor5,1-alphthalazine] | 127% | 77% | 95% | 92% | 70% | 85% | 74% | 68% | 57% | 72% | 87% | 78% | 74% | 61% |
| COc1nn2c(C)nnc2c2ccccc12 [Compound 3, 6-Methoxy-3-methyl-1,2,4-triazolo[3,4-a]phthalazine] | 89% | 50% | 37% | 32% | 96% | 77% | 71% | 52% | 82% | 77% | 35% | 11% | 17% | 5% |
| FC(F)(F)c1nnc2c3ccccc3cnn12 [Compound 5, 3-Trifluoromethyl-1,2,4-triazolo[3,4-a]phthalazine] | 114% | 89% | 70% | 105% | 107% | 99% | 94% | 62% |  |  | 97% | 107% | 56% | 108% |
| [2H]C([2H])([2H])c1nnc2c3ccccc3cnn12 [Compound 7, 3-D3-Methyl-1,2,4-triazolo[3,4-a]phthalazine] | 101% | 75% | 43% | 30% | 79% | 54% | 44% | 47% | 43% | 33% | 19% | 9% | 14% | 3% |
| c1ccc2c(c1)cnn1cnnc21 [Compound 10, 1,2,4-Triazolo[3,4-a]phthalazine] |  |  |  |  |  |  |  |  |  |  | 67% | 52% | 48% | 25% |
| Cc1nnc2c3cscc3cnn12 [Compound 16, 3-Methylthieno[3,4-d][1,2,4]triazolo[4,3-b]pyridazine] | 79% | 62% | 86% | 55% | 117% | 99% | 82% | 35% | 79% | 48% | 72% | 43% | 82% | 35% |
| Cc1nnc2c3ccc(C(F)(F)F)cc3cnn12 [Compound 36, 3-Methyl-8-(trifluoromethyl)-[1,2,4]triazolo[3,4-a]phthalazine] |  |  |  |  |  |  |  |  |  |  | 64% | 68% | 36% | 22% |
| CC(C)Oc1nn2nnnc2c2c(Cl)cccc12 [Compound 44, 10-chloro-6-isopropoxytetrazolo[5,1-a]phthalazine] | 122% | 89% | 61% | 65% | 122% | 89% | 61% | 65% | 72% | 79% |  |  |  |  |
